As a reminder, the Cmax is the highest concentration seen after dosing.

Consider one compound from article PMC5937893, “Heat-stable sublingual oxytocin tablets as a potential needle-free approach for preventing postpartum hemorrhage in low-resource settings” (Drug Delivery and Translational Research, 2018).

On the set-up of data set [1]: method as in earlier work. The note with it: women, buccal route, levels greater than 1000 IU, induction of labor; ref [10]; cited from earlier work.
The next data set in a line: in vivo. The note with it: female, Yucatan miniature swine, pig, im, 20 IU.
For data set [2] the following is noted: in vivo.
Experimental: (§1) Next, a crossover pharmacokinetic study with 24-h washout was conducted to determine oxytocin plasma levels after SL administration and to compare with the standard IM route in female mini pigs, chosen due to the similarity in oral cavity architecture with humans. Ten anesthetized female, non-pregnant Yucatan miniature swine, Sus scrofa 3 to 5 months old and weighing 15 to 20 kg were administered an oxytocin FDT under the tongue. For the control, mini pigs received 20 IU of oxytocin in a 1 mL IM injection into the right hind limb. […] Blood was collected from both groups at several time points up to 60 min after administration, via previously implanted vascular access ports, and plasma was obtained for analysis. A commercial enzyme-linked immunosorbent assay kit was used to detect oxytocin in the plasma.
(§2) The pharmacokinetic data were derived from ten non-pregnant female Yucatan miniature swine, Sus scrofa, aged 3
(§3) to 5 months, weighing 15 to 20 kg (Sinclair Bio-Resources, LLC, Auxvasse, MO, USA). Ten experimental pigs
(§4) received a sublingual (SL) tablet with 400 IU of oxytocin, and ten received SL tablets with 600 IU oxytocin. Ten
(§5) control pigs received 20 IU of oxytocin in a 1 mL intramuscular (IM) injection.
(§6) Animals were anesthetized with dexmedetomidine (0.04 mg/kg) mixed with midazolam (0.2 mg/kg), and anesthesia […]
The next data set can be described thus: Saliva stability study. It is filed as in vitro ADME. The note with it: pooled human saliva, 37 °C, 1 hour, HPLC, content at 1 hour divided by content at time zero, two aliquots per time point. Here is the method:
Since the oxytocin FDTs are intended to be administered under the tongue, we confirmed the stability of oxytocin in saliva prior to initiation of the pharmacokinetic study. The FDTs were incubated in pooled human saliva maintained at 37 °C for an hour along with unformulated oxytocin as a control. […]
the resting TEER measurement from the final TEER measurement. A reduction in the TEER indicates increased permeability of oral tissue after treatment.
Disintegration testing: Non-sink method
50, 60, 90 seconds) for complete disintegration. […]
aliquoted into four different vials. […]
immediately. […] The other two
HPLC mobile phase liquid and centrifuged immediately. The supernatants were loaded for HPLC analysis at the […]
1-hour divided by the content at time zero.
Test material Route of administration (IU/animal) Dose administered
Formulation 4 Sublingual 600 1 tablet
Formulation 4 Sublingual 400 1 tablet
Control Intramuscular 20 1 mL of 20 IU/mL
The FDTs were administered […]
once on days 1, 3, 8, 15, and 18. […]
aid in dissolution of the tablet. […]
right hind limb (biceps femoris) once on day 22.

Experimental for in vivo: as §1, §2, §3, §4, §5, §6

In the case of `CC[C@H](C)[C@@H]1NC(=O)[C@H](Cc2ccc(O)cc2)NC(=O)[C@@H](N)CSSC[C@@H](C(=O)N2CCC[C@H]2C(=O)N[C@@H](CC(C)C)C(=O)NCC(N)=O)NC(=O)[C@H](CC(N)=O)NC(=O)[C@H](CCC(N)=O)NC1=O` [oxytocin], the Adverse events entry in data set [1] was “without any adverse events”. Further, the concentration in the data set “in vivo” peaked (Cmax) at 0.612 ng/mL. Moreover, in data set [2], the “Plasma levels of oxytocin in unanesthetized versus anesthetized pigs” value is recorded as “significantly higher”. In the data set “Saliva stability study”, the “Proteolytic degradation of oxytocin in saliva” value is on record as “none to minimal proteolytic degradation”.
